The target of the assay is T1, OX2R (Homo sapiens, UniProt O43614).
T1 construct: expressed in transfected cells; host or cells: CHO (Chinese hamster ovary) cells constitutively expressing the OX2R gene and NFAT-luciferase (CHOOX2R)
T1 sequence (O43614 1-444): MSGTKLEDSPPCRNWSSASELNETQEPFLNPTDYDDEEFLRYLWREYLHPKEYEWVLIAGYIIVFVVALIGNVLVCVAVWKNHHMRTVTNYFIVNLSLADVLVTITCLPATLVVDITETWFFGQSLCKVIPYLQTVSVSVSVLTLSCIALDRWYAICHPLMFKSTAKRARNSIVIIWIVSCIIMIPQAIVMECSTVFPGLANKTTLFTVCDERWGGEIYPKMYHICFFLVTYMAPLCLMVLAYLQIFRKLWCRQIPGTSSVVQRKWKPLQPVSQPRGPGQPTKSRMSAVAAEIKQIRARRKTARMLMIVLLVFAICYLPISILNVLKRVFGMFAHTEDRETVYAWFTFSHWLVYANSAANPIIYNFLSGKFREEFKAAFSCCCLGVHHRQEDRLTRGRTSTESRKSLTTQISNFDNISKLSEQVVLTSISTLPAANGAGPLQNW
In words: Evaluation of agonist activity against OX2R (CHOOX2R cells, Fura2AM fluorescence, FDSS3000). The class given is cell-based. The protocol:
Evaluation of Agonist Activity Against OX2R
NFAT-luciferase gene and OX2R gene were each constitutively expressed in CHO cell, which is a cell line derived from Chinese hamster ovary to establish a cell line (CHOOX2R). The cells thereof were sown on a 96 well plate at 10000 cells/well, and cultured in a 5% FBS-added DMEM medium for 48 hr. […] After washing, HEPES buffer (75 μL) was added, a test compound solution (25 μL) was added, and changes in the fluorescence intensity were measured by FDSS3000 (Hamamatsu Photonics K.K.). The test compound was dissolved in DMSO (final concentration of DMSO was 1%), and diluted with HEPES buffer to a final concentration of 0.1 μM, 1.0 μM or 10 μM.

Setting [1] is: test compound 0.1 μM; relative to orexin-A as full agonist (100%); CHOOX2R cells.
Setting [2] is: test compound 1.0 μM; relative to orexin-A as full agonist (100%); CHOOX2R cells.
[3] abbreviates: test compound 10 μM; relative to orexin-A as full agonist (100%); CHOOX2R cells.
Setting [4] is: test compound 0.1 μM; CHOOX2R cells; relative to orexin-A as full agonist (100%).
The mark [5] stands for this setting: test compound 1.0 μM; CHOOX2R cells; relative to orexin-A as full agonist (100%).
Setting [6] is: test compound 10 μM; CHOOX2R cells; relative to orexin-A as full agonist (100%).

pEC50: −log10 of the molar value. A value given as a limit tells only on which side of the number the result lay.

With `COc1ccccc1C(=O)NCCNc1cccc(NS(=O)(=O)c2cc(-c3cccc(C(=O)N(C)C)c3)ccc2C)c1` [Example 106, 3′-(N-(3-((2-(2-methoxybenzamido)ethyl)amino)phenyl)sulfamoyl)-N,N,4′-trimethyl-[1,1′-biphenyl]-3-carboxamide], the “Response (0.1 μM (%))” value under setting [1] is less than 5%. In addition, the “Response (1.0 μM (%))” value under setting [2] amounted to 27%. Moreover, the “Response (10 μM (%))” value under setting [3] stood at 39%.
On to `COc1ccc(-c2cccc(C(=O)N(C)C)c2)cc1S(=O)(=O)Nc1cccc(NCCNC(=O)c2cccc(Cl)n2)c1` [Example 55, 6-chloro-N-(2-((3-(3′-(dimethylcarbamoyl)-4-methoxy-[1,1′-biphenyl]-3-ylsulfonamido)phenyl)amino)ethyl)picolinamide], for which the “Response (0.1 μM (%))” value under setting [4] was determined as 23%. The “Response (1.0 μM (%))” value under setting [5] is reported as 144%. Moreover, the “Response (10 μM (%))” value under setting [6] was found to be 122%.
Taken in the same sequence, the figures for `COc1ccc(-c2cccc(C(=O)N3CCC3)c2)cc1S(=O)(=O)Nc1cccc(NCCNC(=O)c2c(OC)cccc2OC)c1` [Example 85, N-(2-((3-(3′-(azetidine-1-carbonyl)-4-methoxy-[1,1′-biphenyl]-3-ylsulfonamido)phenyl)amino)ethyl)-2,6-dimethoxybenzamide] were 19%, 90% and 90%.
For the compound `COc1cccc(C(=O)NCCNc2cccc(NS(=O)(=O)c3cc(-c4cc(F)ccc4F)ccc3OC)c2)c1` [Example 20, N-(2-((3-(2′,5′-difluoro-4-methoxy-[1,1′-biphenyl]-3-ylsulfonamide)phenyl)amino)ethyl)-3-methoxybenzamide], under setting [1], the “Response (0.1 μM (%))” value is on record as less than 5%. Moreover, under setting [2], the “Response (1.0 μM (%))” value was found to be 13%. In addition, the “Response (10 μM (%))” value under setting [3] came out at 180%.
Regarding `COc1ccc(C(=O)NCCNc2cccc(NS(=O)(=O)c3cc(-c4ccccc4F)ccc3OC)c2)cc1` [Example 3, N-(2-((3-(2′-fluoro-4-methoxy-[1,1′-biphenyl]-3-ylsulfonamide)phenyl)amino)ethyl)-4-methoxybenzamide], under setting [1], the “Response (0.1 μM (%))” value is less than 5%. For the same compound, the “Response (1.0 μM (%))” value under setting [2] was determined as 11%. Besides, the “Response (10 μM (%))” value under setting [3] was found to be 50%.
The corresponding values for `COc1ccccc1C(=O)NCCNc1cccc(NS(=O)(=O)c2cc(-c3c(F)cccc3OC)ccc2OC)c1` [Example 23, N-(2-((3-(2′-fluoro-4,6′-dimethoxy-[1,1′-biphenyl]-3-ylsulfonamide)phenyl)amino)ethyl)-2-methoxybenzamide] are less than 5%, less than 5% and less than 5%.
Consider `COc1ccc(-c2cccc(C(=O)N(C)C)c2)cc1S(=O)(=O)Nc1cccc(NCCNC(=O)c2sccc2C)c1` [Example 60, N-(2-((3-(3′-(dimethylcarbamoyl)-4-methoxy-[1,1′-biphenyl]-3-ylsulfonamido)phenyl)amino)ethyl)-3-methylthiophene-2-carboxamide], for which the “Response (0.1 μM (%))” value under setting [4] is less than 5%. Moreover, the “Response (1.0 μM (%))” value under setting [5] is on record as 43%. In addition, the “Response (10 μM (%))” value under setting [6] came out at 75%.
With `COc1ccccc1C(=O)NCCNc1cccc(NS(=O)(=O)c2cc(-c3cccnc3)ccc2OC)c1` [Example 96, 2-methoxy-N-(2-((3-(2-methoxy-5-(pyridin-3-yl)phenylsulfonamido)phenyl)amino)ethyl)benzamide], under “OX2R agonist activity; CHOOX2R cells”, the negative-log EC50 (pEC50) was 6.57. Further, where the note is “conversion with orexin-A as full agonist (maximum agonist activity 100%)”, the Emax is 88%. Under setting [4], the “Response (0.1 μM (%))” value is listed as less than 5%. Moreover, the “Response (1.0 μM (%))” value under setting [5] is on record as 61%. Moreover, the “Response (10 μM (%))” value under setting [6] was found to be 88%.
`COc1ccc(-c2cccc(C(=O)N(C)C)c2)cc1S(=O)(=O)Nc1cccc(NCCNC(=O)c2ccoc2C)c1` [Example 67, N-(2-((3-(3′-(dimethylcarbamoyl)-4-methoxy-[1,1′-biphenyl]-3-ylsulfonamido)phenyl)amino)ethyl)-2-methylfuran-3-carboxamide]: the “Response (0.1 μM (%))” value under setting [4] is 55%. The “Response (1.0 μM (%))” value under setting [5] is listed as 96%. The “Response (10 μM (%))” value under setting [6] is recorded as 76%.

The values are drawn from patent US9815787B2, “Sulfonamide derivative or pharmaceutically acceptable acid addition salt thereof” (UNIVERSITY OF TSUKUBA, priority 2013, dated 2017).
